In US8343983B2, “Substituted pyrazolo-pyrimidine compounds” (ArQule, Inc., priority 2009, dated 2013):
Read-outs that look alike come from different tables or passages of the source.

System: cancer cells
Test: MTS assay: inhibition of cell growth (formazan absorbance at 492 nm after 72 hours with test compound)
Format: cell-based
Conditions: inhibition class
Summary of the method: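 DMEM with 1% FBS; cells seeded at 3000/well and grown 18 h at 37 °C, then exposed to compound for 72 h and to MTS/PMS for 4 h. IC50 is the concentration giving a 50% absorbance drop; grades are % inhibition bands.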

[1] = Homo sapiens, DLD-1 cells, read-out: DLD-1, MTS 72 hours at 10 uM
[2] = Homo sapiens, KATO III cells, read-out: KATO III, MTS 72 hours at 10 uM
[3] = Homo sapiens, MDA-MB-231 cells, read-out: MDA-MB-231, MTS 72 hours at 10 uM
[4] = Homo sapiens, NCI-H1299 cells, read-out: NCI-H1299, MTS 72 hours at 10 uM
[5] = Homo sapiens, PC-3 cells, read-out: PC-3, MTS 72 hours at 10 uM
[6] = PACA-2 cells, read-out: PACA-2, MTS 72 hours at 10 uM

O=C(NCc1ccccc1)C1CN(Cc2ccccc2)c2nc(NC3CCC3)nc3[nH]nc1c23 (stereo not drawn) [Compound 232, N,6-dibenzyl-4-(cyclobutylamino)-2,6,7,8-tetrahydro-1,2,3,5,6-pentaazaacenaphthylene-8-carboxamide]
inhibition at 10 µM [1]: < 50%
inhibition at 10 µM [2]: < 50%
inhibition at 10 µM [3]: < 50%
inhibition at 10 µM [4]: < 50%
inhibition at 10 µM [5]: < 50%
inhibition at 10 µM [6]: < 50%

Cc1ccccc1CNC(=O)C1CN(Cc2ccccc2)c2nc(NCc3ccccc3)nc3[nH]nc1c23 (stereo not drawn) [Compound 233, 6-benzyl-4-(benzylamino)-N-(2-methylbenzyl)-2,6,7,8-tetrahydro-1,2,3,5,6-pentaazaacenaphthylene-8-carboxamide]
inhibition at 10 µM [1]: > 79%
inhibition at 10 µM [2]: 50 to 79%
inhibition at 10 µM [3]: > 79%
inhibition at 10 µM [4]: > 79%
inhibition at 10 µM [5]: > 79%
inhibition at 10 µM [6]: < 50%

O=C(NCc1ccc2c(c1)OCO2)C1CN(Cc2ccccc2)c2nc(NCc3ccccc3)nc3[nH]nc1c23 (stereo not drawn) [Compound 234, N-(1,3-benzodioxol-5-ylmethyl)-6-benzyl-4-(benzylamino)-2,6,7,8-tetrahydro-1,2,3,5,6-pentaazaacenaphthylene-8-carboxamide]
inhibition at 10 µM [1]: > 79%
inhibition at 10 µM [2]: > 79%
inhibition at 10 µM [3]: > 79%
inhibition at 10 µM [4]: > 79%
inhibition at 10 µM [5]: > 79%
inhibition at 10 µM [6]: 50 to 79%

O=C(NCCc1ccccc1)C1CN(Cc2ccccc2)c2nc(NCc3ccccc3)nc3[nH]nc1c23 (stereo not drawn) [Compound 235, 6-benzyl-4-(benzylamino)-N-(2-phenylethyl)-2,6,7,8-tetrahydro-1,2,3,5,6-pentaazaacenaphthylene-8-carboxamide]
inhibition at 10 µM [1]: > 79%
inhibition at 10 µM [2]: > 79%
inhibition at 10 µM [3]: > 79%
inhibition at 10 µM [4]: > 79%
inhibition at 10 µM [5]: > 79%
inhibition at 10 µM [6]: > 79%

CC(C)CNC(=O)C1CN(Cc2ccccc2)c2nc(NCc3ccccc3)nc3[nH]nc1c23 (stereo not drawn) [Compound 236, 6-benzyl-4-(benzylamino)-N-(2-methylpropyl)-2,6,7,8-tetrahydro-1,2,3,5,6-pentaazaacenaphthylene-8-carboxamide]
inhibition at 10 µM [1]: < 50%
inhibition at 10 µM [2]: < 50%
inhibition at 10 µM [3]: < 50%
inhibition at 10 µM [4]: < 50%
inhibition at 10 µM [5]: < 50%
inhibition at 10 µM [6]: < 50%

O=C(C1CN(Cc2ccccc2)c2nc(NCc3ccccc3)nc3[nH]nc1c23)N1CCOCC1 (stereo not drawn) [Compound 237, N,6-dibenzyl-8-(morpholin-4-ylcarbonyl)-2,6,7,8-tetrahydro-1,2,3,5,6-pentaazaacenaphthylen-4-amine]
inhibition at 10 µM [1]: < 50%
inhibition at 10 µM [2]: < 50%
inhibition at 10 µM [3]: < 50%
inhibition at 10 µM [4]: < 50%
inhibition at 10 µM [5]: < 50%
inhibition at 10 µM [6]: < 50%

O=C(NCc1ccc(Cl)cc1)C1CN(Cc2ccccc2)c2nc(NCc3ccccc3)nc3[nH]nc1c23 (stereo not drawn) [Compound 238, 6-benzyl-4-(benzylamino)-N-(4-chlorobenzyl)-2,6,7,8-tetrahydro-1,2,3,5,6-pentaazaacenaphthylene-8-carboxamide]
inhibition at 10 µM [1]: > 79%
inhibition at 10 µM [2]: > 79%
inhibition at 10 µM [3]: > 79%
inhibition at 10 µM [4]: > 79%
inhibition at 10 µM [5]: > 79%
inhibition at 10 µM [6]: 50 to 79%

CN(C(=O)C1CN(Cc2ccccc2)c2nc(NCc3ccccc3)nc3[nH]nc1c23)C1CCCCC1 (stereo not drawn) [Compound 239, 6-benzyl-4-(benzylamino)-N-cyclohexyl-N-methyl-2,6,7,8-tetrahydro-1,2,3,5,6-pentaazaacenaphthylene-8-carboxamide]
inhibition at 10 µM [1]: < 50%
inhibition at 10 µM [2]: < 50%
inhibition at 10 µM [3]: < 50%
inhibition at 10 µM [4]: < 50%
inhibition at 10 µM [5]: < 50%
inhibition at 10 µM [6]: < 50%

O=C(NCC1CCCCC1)C1CN(Cc2ccccc2)c2nc(NCc3ccccc3)nc3[nH]nc1c23 (stereo not drawn) [Compound 240, 6-benzyl-4-(benzylamino)-N-(cyclohexylmethyl)-2,6,7,8-tetrahydro-1,2,3,5,6-pentaazaacenaphthylene-8-carboxamide]
inhibition at 10 µM [1]: > 79%
inhibition at 10 µM [2]: > 79%
inhibition at 10 µM [3]: < 50%
inhibition at 10 µM [4]: > 79%
inhibition at 10 µM [5]: > 79%
inhibition at 10 µM [6]: < 50%

O=C(NCCOc1ccccc1)C1CN(Cc2ccccc2)c2nc(NCc3ccccc3)nc3[nH]nc1c23 (stereo not drawn) [Compound 241, 6-benzyl-4-(benzylmino)-N-(2-phenoxyethyl)-2,6,7,8-tetrahydro-1,2,3,5,6-pentaazaacenaphthylene-8-carboxamide]
inhibition at 10 µM [1]: < 50%
inhibition at 10 µM [2]: < 50%
inhibition at 10 µM [3]: < 50%
inhibition at 10 µM [4]: < 50%
inhibition at 10 µM [5]: < 50%
inhibition at 10 µM [6]: < 50%

COc1ccc(CN2CCCc3n[nH]c4nc(N5CCOCC5)nc2c34)cc1 [Compound 242, 6-(4-methoxybenzyl)-4-morpholin-4-yl-6,7,8,9-tetrahydro-2H-1,2,3,5,6-pentaazabenzo[cd]azulene]
inhibition at 10 µM [1]: > 79%
inhibition at 10 µM [2]: < 50%
inhibition at 10 µM [3]: < 50%
inhibition at 10 µM [4]: < 50%
inhibition at 10 µM [5]: < 50%
inhibition at 10 µM [6]: 50 to 79%

COc1ccc(CN2CCCc3n[nH]c4nc(N5CCCC5)nc2c34)cc1 [Compound 244, 6-(4-methoxybenzyl)-4-pyrrolidin-1-yl-6,7,8,9-tetrahydro-2H-1,2,3,5,6-pentaazabenzo[cd]azulene]
inhibition at 10 µM [1]: < 50%
inhibition at 10 µM [2]: < 50%
inhibition at 10 µM [3]: < 50%
inhibition at 10 µM [4]: < 50%
inhibition at 10 µM [5]: < 50%
inhibition at 10 µM [6]: < 50%

COc1ccc(CN2CCCc3n[nH]c4nc(N5CCCCC5)nc2c34)cc1 [Compound 245, 6-(4-methoxybenzyl)-4-piperidin-1-yl-6,7,8,9-tetrahydro-2H-1,2,3,5,6-pentaazabenzo[cd]azulene]
inhibition at 10 µM [1]: < 50%
inhibition at 10 µM [2]: < 50%
inhibition at 10 µM [3]: < 50%
inhibition at 10 µM [4]: < 50%
inhibition at 10 µM [5]: < 50%
inhibition at 10 µM [6]: < 50%

COc1ccc(CN2CCCc3n[nH]c4nc(NC5CCN(C)CC5)nc2c34)cc1 [Compound 246, 6-(4-methoxybenzyl)-N-(1-methylpiperidin-4-yl)-6,7,8,9-tetrahydro-2H-1,2,3,5,6-pentaazabenzo[cd]azulen-4-amine]
inhibition at 10 µM [1]: < 50%
inhibition at 10 µM [2]: < 50%
inhibition at 10 µM [3]: < 50%
inhibition at 10 µM [4]: < 50%
inhibition at 10 µM [5]: < 50%
inhibition at 10 µM [6]: < 50%

COc1ccc(CN2CCCc3n[nH]c4nc(NCc5ccccc5)nc2c34)cc1 [Compound 247, N-benzyl-6-(4-methoxybenzyl)-6,7,8,9-tetrahydro-2H-1,2,3,5,6-pentaazabenzo[cd]azulen-4-amine]
inhibition at 10 µM [1]: < 50%
inhibition at 10 µM [2]: < 50%
inhibition at 10 µM [3]: < 50%
inhibition at 10 µM [4]: < 50%
inhibition at 10 µM [5]: < 50%
inhibition at 10 µM [6]: < 50%

COc1ccc(CN2CCCc3n[nH]c4nc(NCCc5ccc(F)cc5)nc2c34)cc1 [Compound 248, N-[2-(4-fluorophenyl)ethyl]-6-(4-methoxybenzyl)-6,7,8,9-tetrahydro-2H-1,2,3,5,6-pentaazabenzo[cd]azulen-4-amine]
inhibition at 10 µM [1]: > 79%
inhibition at 10 µM [2]: > 79%
inhibition at 10 µM [3]: > 79%
inhibition at 10 µM [4]: > 79%
inhibition at 10 µM [5]: > 79%
inhibition at 10 µM [6]: > 79%

COc1ccc(CN2CCCc3n[nH]c4nc(NCCN5CCOCC5)nc2c34)cc1 [Compound 249, 6-(4-methoxybenzyl)-N-(2-morpholin-4-ylethyl)-6,7,8,9-tetrahydro-2H-1,2,3,5,6-pentaazabenzo[cd]azulen-4-amine]
inhibition at 10 µM [1]: < 50%
inhibition at 10 µM [2]: < 50%
inhibition at 10 µM [3]: < 50%
inhibition at 10 µM [4]: < 50%
inhibition at 10 µM [5]: < 50%
inhibition at 10 µM [6]: < 50%

COc1ccc(CN2CCCc3n[nH]c4nc(NCc5ccccc5Cl)nc2c34)cc1 [Compound 250, N-(2-chlorobenzyl)-6-(4-methoxybenzyl)-6,7,8,9-tetrahydro-2H-1,2,3,5,6-pentaazabenzo[cd]azulen-4-amine]
inhibition at 10 µM [1]: 50 to 79%
inhibition at 10 µM [2]: > 79%
inhibition at 10 µM [3]: 50 to 79%
inhibition at 10 µM [4]: < 50%
inhibition at 10 µM [5]: > 79%
inhibition at 10 µM [6]: > 79%

COc1ccc(CN2CCCc3n[nH]c4nc(NCc5cccnc5)nc2c34)cc1 [Compound 251, 6-(4-methoxybenzyl)-N-(pyridin-3-ylmethyl)-6,7,8,9-tetrahydro-2H-1,2,3,5,6-pentaazabenzo[cd]azulen-4-amine]
inhibition at 10 µM [1]: > 79%
inhibition at 10 µM [2]: > 79%
inhibition at 10 µM [3]: > 79%
inhibition at 10 µM [4]: > 79%
inhibition at 10 µM [5]: > 79%
inhibition at 10 µM [6]: > 79%

COc1ccc(CN2CCCc3n[nH]c4nc(NCCc5c[nH]c6ccc(Cl)cc56)nc2c34)cc1 [Compound 252, N-[2-(5-chloro-1H-indol-3-yl)ethyl]-6-(4-methoxybenzyl)-6,7,8,9-tetrahydro-2H-1,2,3,5,6-pentaazabenzo[cd]azulen-4-amine]
inhibition at 10 µM [1]: 50 to 79%
inhibition at 10 µM [2]: < 50%
inhibition at 10 µM [3]: < 50%
inhibition at 10 µM [4]: < 50%
inhibition at 10 µM [5]: < 50%
inhibition at 10 µM [6]: < 50%

COc1ccc(CN2CCCc3n[nH]c4nc(NCc5ccc(Cl)cc5)nc2c34)cc1 [Compound 253, N-(4-chlorobenzyl)-6-(4-methoxybenzyl)-6,7,8,9-tetrahydro-2H-1,2,3,5,6-pentaazabenzo[cd]azulen-4-amine]
inhibition at 10 µM [1]: < 50%
inhibition at 10 µM [2]: < 50%
inhibition at 10 µM [3]: < 50%
inhibition at 10 µM [4]: 50 to 79%
inhibition at 10 µM [5]: < 50%
inhibition at 10 µM [6]: < 50%
